According to patent US11174271B2, “6-membered uracil isosteres” (CV6 Therapeutics (NI) Limited, priority 2016, dated 2021):

Tests used:
[1] = system: colorectal (HCT116 and SW620) cell line models; assay: MTS growth inhibition assay; format: cell-based; conditions: increasing concentrations of 5-FU between 0 and 100 μmol/L; both colorectal cancer cell lines
Experimental: The Cell Titer AQueous MTS assay (Promega) is carried out according to the manufacturers guidelines. […] The combination effect is determined by the combination index (CI) method utilizing Calcusyn software (Biosoft, Ferguson, Mo.). Fraction affected (FA) is calculated from the percent growth inhibition: FA=[…]. CI values <1, synergism; 1-1.2, additive and >1.2, antagonism.
Test compounds are evaluated for their antitumor activity in colorectal cancer cells using the MTS growth inhibition assay. HCT116 and SW620 cells are exposed to increasing concentrations of each agent for 72 hours and growth inhibition is directly compared to vehicle-treated controls. The NSCLC cell lines A549 and H1299 are exposed to increasing concentrations of each agent for 72 hours and growth inhibition is directly compared to vehicle-treated controls.
MTS growth inhibition assays are performed to evaluate the effectiveness of the test compounds alone and in combination with the fluoropyrimidine thymidylate synthase (TS) inhibitor 5-fluorouracil (5-FU) at inhibiting the growth of colorectal (HCT116 and SW620) cell line models. […] Simultaneous treatment with increasing concentrations of 5-FU and a test compound at fixed concentrations of 25 μmol/L is determined.

[2] = biological target: T1, recombinant human deoxyuridine nucleotidohydrolase (dUTPase) (Homo sapiens, UniProt P33316); assay: fluorescence-based dUTPase inhibition assay (DNA polymerase-based dUTP detection); format: biochemical; conditions: mean across three concentrations, typically 100, 50 and 25 μmol/L, compared to the in-run positive control
T1 construct: made in house
T1 sequence (P33316 1-164 isoform P33316-2): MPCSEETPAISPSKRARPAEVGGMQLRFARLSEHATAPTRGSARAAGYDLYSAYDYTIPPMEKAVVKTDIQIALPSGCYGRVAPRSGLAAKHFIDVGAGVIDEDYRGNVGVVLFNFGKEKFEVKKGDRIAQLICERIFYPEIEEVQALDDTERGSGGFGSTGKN
Description: Recombinant human deoxyuridine nucleotidohydrolase (dUTPase) is expressed and purified as described in Ladner R D, Carr S A, Huddleston M J, McNulty D E, Caradonna S J. J Biol Chem. 1996 Mar. 29; 271(13):7752-7. All drugs stocks are aliquoted and diluted as appropriate prior to use. The oligonucelotide primer, templates and fluorophore- and quencher-labeled detection probes are synthesized by Integrated DNA Technologies (Coralville, Iowa), subjected to polyacrylamide gel electrophoresis purification and reconstituted in Omnipur sterile nuclease-free water (EMD Chemicals USA, Gibbstown N.J.) at a stock concentration of 100 μmol/L. The two non-emissive (dark) quenching molecules incorporated into the detection probes include the Iowa black fluorescein quencher (IBFQ; absorption max 531 nm) and ZEN (non-abbreviation; absorption max 532 nm). The fluorescent label utilized is 6-FAM (5′-carboxyfluorescein; excitation max.=494 nm, emission max.=520 nm). Probes are further diluted to a working stock of 10 μmol/L and aliquoted to avoid repeated freeze/thaw cycles. AmpliTaq Gold DNA Polymerase, GeneAmp 10×PCR Buffer 2, MgCl2 and MicroAmp Optical 96-well Reaction Plates are purchased from Applied Biosystems (Carlsbad, Calif.). dNTPs are purchased individually at stock concentrations of 100 mmol/L from New England Biolabs at HPLC-certified >99% purity (Ipswich, Mass.).
Reaction mixtures contained primer, probe and template at an equimolar final concentration of 0.4 μmol/L. Magnesium chloride (MgCl2) is included at a final concentration of 2 mmol/L. Non-limiting dNTPs are included in the reaction mix in excess at a final concentration of 100 μmol/L (dUTP/dTTP is excluded). AmpliTaq Gold DNA polymerase is added at 0.875 U/reaction, 2.5 μl of 10×PCR buffer 2 added and nuclease-free ddH2O added to a final reaction volume of 25 μl. For dUTP inhibition analysis, the volume of ddH2O is further modified to accommodate an additional 1 μl of dUTPase (10 ng/μl) and 1 μl of inhibitor or DMSO control. Thermal profiling and fluorescence detection is performed using a customized thermal program on board a Roche Lightcycler LC480 Instrument II. For analysis of dNTPs, the thermal profile consisted of an 8 min 37° C. step followed by a 10 min 95° C. step to ‘hot-start’ the Taq polymerase and a primer extension time of up to 30 min at 60° C. Raw fluorescence spectra for 6-FAM is measured at specified time intervals to follow assay progression on board a Roche LightCycler 480 Software Version 1.5 and exported and analyzed in Microsoft Excel (Microsoft, Redmond Wash.) and Prism (GraphPad Software, La Jolla Calif.). Fluorescence values for blank reactions (limiting dNTP omitted) are subtracted to give normalized fluorescence units (NFU) to account for background fluorescence.
Test compounds were screened in a fluorescence-based assay. The assay employed a DNA polymerase-based approach utilizing an oligonucleotide template with 3 distinct regions: a 3′ primer binding region, a mid-template dUTP/thymidine triphosphate (TTP) detection region and a 5′ 6-[…] (FAM)-labeled probe binding region that incorporates a black hole quenching moiety. During the reaction, the probe and primer hybridize to the oligonucleotide template to form the template:primer:probe complex. When Taq polymerase binds to the primer in the TPP complex and dUTP is present, successful extension of the nascent strand occurs and the inherent 5′ to 3′ exonuclease activity of Taq polymerase cleaves and displaces the 6-FAM-labeled probe in a 5′ to 3′ direction, releasing the 6-FAM fluorophore from its proximity to the […]. This displacement effectively disrupts the Förster resonance energy transfer (FRET) and the resulting fluorescence detected upon excitation is directly proportional to the amount of the dUTP available in the assay for incorporation. […]

[3] = biological target: T1, recombinant human deoxyuridine nucleotidohydrolase (dUTPase); assay: as above; format: biochemical; conditions: 5 ng recombinant dUTPase, 50 pmols dUTP, 37° C. for 8 mins
[4] = system: colorectal (HCT116), breast (MCF-7) and non-small cell lung (H1299, A549, H358 and H460) cell line models; assay: Colony forming assay; format: cell-based; conditions: increasing concentrations of FUdR between 0.5 and 2.5 μmol/L; all cell lines evaluated
Experimental: Colony forming assay showing the ability of colon (SW620, HCT116), non-small cell lung (A549, H460, H1299 and H358) and breast (MCF7) cancer cells to survive and proliferate following transient 24 hour exposure to test compounds, FUdR and combinations are determined. Specifically, cells are seeded at densities between 50 and 100 cells/well in 24-well plates. […] After 24 hours, drug is removed, cells are rinsed and allowed to outgrow for 10-14 days. At the conclusion of the outgrowth, cells are fixed in 60% ice cold methanol and stained with 0.1% crystal violet, scanned and counted. Data is presented as percentage of untreated controls (mean±SD). Fraction affected and combination indexes are calculated according to the method of Chou and Talalay where <1 is indicative of a synergistic drug interaction.
Colony forming assays are performed to evaluate the effectiveness of test compounds alone and in combination with the fluoropyrimidine thymidylate synthase (TS) inhibitor fluorodeoxyuridine (FUdR) at reducing cancer cell viability in colorectal (HCT116), breast (MCF-7) and non-small cell lung (H1299, A549, H358 and H460) cell line models. […] In colorectal cancer cells, concentrations of test compounds ranging e.g., from 3.1 μmol/L to 50 μmol/L are combined with 0.5 μmol/L FUdR in HCT116 cells and 1 μmol/L FUdR in SW620 cells.

Question: With `O=c1[nH]cc(F)c(=O)[nH]1` [Example 5-FU, 5-fluorouracil] as the molecule, how does the growth inhibition [1] read?
Answer: dose-dependent increases in growth inhibition

Question: For `C[C@@H](NS(=O)(=O)CCCOCN1CCC(=O)NC1=O)c1cccc(OC2CCCC2)c1` [Example 93, (R)—N-(1-(3-(cyclopentyloxy)phenyl)ethyl)-3-((2,4-dioxotetrahydropyrimidin-1(2H)-yl)methoxy)propane-1-sulfonamide], which “% relative inhibition vs. positive control” value [2] is on record?
Answer: 149%

Question: What about the IC50 [3] of the same molecule?
Answer: 500 nM

Question: With `O=c1[nH]c(=O)n([C@H]2C[C@H](O)[C@@H](CO)O2)cc1F` [FUdR, fluorodeoxyuridine] as the molecule, how does the colonies formed [4] read?
Answer: dose-dependent decreases in colonies formed
